According to paper PMC5651230, “TMC2 Modifies Permeation Properties of the Mechanoelectrical Transducer Channel in Early Postnatal Mouse Cochlear Outer Hair Cells” (Frontiers in Molecular Neuroscience, 2017):

Assays:
[1] = target: T1, MET channel of Tmc2−/− outer hair cells (TMC1-containing channel) (Mus musculus, UniProt Q8R4P5); assay: whole-cell patch clamp of OHC, block of MET current (fluid jet), Hill fit; format: cell-based; details: extracellular DHS, -81 mV, 1.3 mM Ca2+, pH 7.5, 20-25 °C; permeant open-channel pore blocker; native channel complex of Tmc2 knockout OHCs (P5-P6); read-out: KD
T1 construct: native MET channel complex in apical cochlear OHCs (P5-P6) of Tmc2 knockout mice; TMC1 the remaining TMC; full composition not known; with LHFPL tetraspan subfamily member 5 protein; Transmembrane inner ear expressed protein
T1 sequence (Q8R4P5 1-757): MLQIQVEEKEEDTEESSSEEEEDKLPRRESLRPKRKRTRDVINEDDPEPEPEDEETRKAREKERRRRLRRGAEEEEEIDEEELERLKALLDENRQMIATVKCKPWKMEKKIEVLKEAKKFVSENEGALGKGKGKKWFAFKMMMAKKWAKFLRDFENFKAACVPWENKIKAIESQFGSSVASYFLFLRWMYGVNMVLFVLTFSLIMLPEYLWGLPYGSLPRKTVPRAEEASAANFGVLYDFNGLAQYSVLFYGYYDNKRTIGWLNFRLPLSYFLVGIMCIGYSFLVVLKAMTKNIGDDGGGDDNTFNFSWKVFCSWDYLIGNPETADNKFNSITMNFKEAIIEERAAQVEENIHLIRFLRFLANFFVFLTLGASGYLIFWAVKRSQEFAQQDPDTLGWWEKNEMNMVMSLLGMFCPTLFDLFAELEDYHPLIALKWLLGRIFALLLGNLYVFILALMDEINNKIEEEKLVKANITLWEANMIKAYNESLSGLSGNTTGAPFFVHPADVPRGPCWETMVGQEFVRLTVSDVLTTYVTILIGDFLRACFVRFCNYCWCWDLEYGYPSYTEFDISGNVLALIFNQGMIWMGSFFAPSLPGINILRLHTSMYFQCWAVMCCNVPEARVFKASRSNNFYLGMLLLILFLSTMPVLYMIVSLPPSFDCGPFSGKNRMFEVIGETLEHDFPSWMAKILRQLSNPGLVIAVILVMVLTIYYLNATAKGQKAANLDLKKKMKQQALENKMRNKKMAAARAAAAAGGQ

[2] = test system: T2, MET channel of Tmc2+/− outer hair cells (TMC1 and TMC2); assay: as above; format: cell-based, Mus musculus; details: extracellular DHS, -81 mV, 1.3 mM Ca2+, pH 7.5, 20-25 °C; permeant open-channel pore blocker; native channel complex of Tmc2 heterozygous OHCs (P5-P6); read-out: KD
T2 construct: native MET channel complex in apical cochlear OHCs (P5-P6) of heterozygous control mice; mixture of TMC1 and TMC2 in unknown proportion; with LHFPL tetraspan subfamily member 5 protein; Transmembrane inner ear expressed protein

IC50 [1]: 5.9 ± 0.2 µM
IC50 [2]: 9.1 ± 0.4 µM
SMILES: CN[C@@H]1[C@H](O[C@H]2[C@H](O[C@H]3[C@H](O)[C@@H](O)[C@H](NC(=N)N)[C@@H](O)[C@@H]3NC(=N)N)O[C@@H](C)[C@]2(O)CO)O[C@@H](CO)[C@H](O)[C@H]1O [dihydrostreptomycin]
